From PMC12058896, “Potent antimicrobial activity of hydrogel loaded with the antimicrobial peptide, D-Bac8c^2,5 Leu, against monospecies and polymicrobial biofilms of Staphylococcus aureus and Pseudomonas aeruginosa” (Frontiers in Microbiology, 2025)
Values after ≈ are worked out from the molar mass of the structure shown. Marks after values point to notes of the source that are not given here. Non-standard residues stand in square brackets, D forms with d. Residues, ends and D or L forms follow the SMILES beside them.

Assays:
THP-1 = format: cell-based, human; details: 24 h
Protocol: Sigma-Aldrich, Ireland). […] At 90% confluence, cells were centrifuged and diluted to a 1:5 ratio with complete RPMI. THP-1 cells were seeded in a 96 well plate at a density of 1 × 10^5 cells/mL with increasing concentrations of D-Bac8c^2,5 Leu. Cells were incubated for 24 h at 37°C with 5% CO2, 95% humidity. […] The absorbance was measured at 595 nm in a microplate spectrophotometer. Cell viability was calculated as a percentage of a control treated with PBS. Two technical replicates were performed each day on three independent days.

[1] = tested on: PAO1 + SH1000 polymicrobial biofilm; test: Static polymicrobial biofilm, CFU enumeration; format: cell-based, S. aureus + P. aeruginosa; details: 6 h, 37°C
Protocol: (§1) Biofilms were formed under static conditions using flat 96-well polystyrene plates as described previously with few modifications ([Nasreddine et al., 2018]). Briefly, overnight cultures in BHI were washed and diluted 1:200 in fresh Bolton Broth media supplemented with 50% bovine heparin plasma, and 5% laked horse blood. From this suspension, 100 μL was used to inoculate the microtiter plate wells prior to static incubation at 37°C for 24 h, 3 days and 5 days. The media in each well was changed daily during prolonged incubation periods (3 and 5 days). Following the initial incubation period and washing, 100 μL of D-Bac8c^2,5 Leu, was added to each test well at 37°C for 6 h at a concentration range of 64–256 μg/mL. After incubation with D-Bac8c^2,5 Leu, biofilms were washed twice with PBS and biofilm assessment was performed. For the polymicrobial biofilms, a bacterial solution ratio 1:1 of S. aureus and P. aeruginosa at 1 × 10^5 CFU/mL each was used to inoculate the wells. In each assay, inoculated medium without antimicrobials and uninoculated medium served as growth and sterility controls, respectively. Experiments were conducted in triplicate, and independent replicates were performed three times to yield n = 3.
(§2) After treatment, formed biofilms were washed twice with sterile PBS and then suspended in TrypLE solution (Gibco, Dublin, Ireland). A serial of 10-fold dilutions of the suspended biofilms were performed in 96-well flat bottom microplates. Then 10 μL of each dilution was plated in triplicate on MH agar using the drop method. For polymicrobial biofilms, dilutions were plated on Mannitol Salt Agar and MacConkey Agar. After overnight incubation at 37°C, CFU were counted and results were expressed as log10CFU/mL.

[2] = tested on: PAO1 + USA300 polymicrobial biofilm; test: Static polymicrobial biofilm, CFU enumeration; format: cell-based, S. aureus + P. aeruginosa; details: 24 h biofilm PAO1 + USA300, 256 μg/mL, 6 h, 37°C
Protocol: as §1, §2

PAO1 = test: microbe, parasite or virus in culture; format: cell-based, Pseudomonas aeruginosa; details: PAO1, 18 h
Protocol: Strains used in the study were isolates of methicillin-resistant Staphylococcus aureus (MRSA); USA300 LAC, BH1CC ([O’Neill et al., 2007]), methicillin-sensitive S. aureus (MSSA); SH1000 ([Horsburgh et al., 2002]) and BH48 ([O’Neill et al., 2007]); and Pseudomonas aeruginosa PAO1 (ATCC […]). Clinical isolates were obtained from a previous collection of isolates of infected wounds. Bacteria were grown aerobically at 37°C with shaking at 200 rpm in Brain Heart Infusion (BHI, Oxoid, Ireland). Selective media, Mannitol Salt Agar (SLS, Ireland) and MacConkey agar (SLS, Ireland), for re-isolation of bacterial strains from mixed species biofilms were used. Bolton Broth (Fannin, Ireland) supplemented with 50% bovine heparin plasma (TebuBio, UK), and 5% laked horse blood (Sigma-Aldrich, Ireland) was used to mimic in vivo conditions for static antibiofilm testing. For dynamic biofilm growth Simulated Wound Fluid (SWF) prepared as described previously with slight modification, 3% v/v fetal bovine serum in maximum recovery diluent (Merck, Ireland) was used ([Barbour et al., 2016]).
Minimum inhibitory concentration (MIC) was determined aerobically using the broth microdilution assay as recommended by the Clinical and Laboratory Standards Institute (CLSI) ([CLSI, 2018]). Briefly, 2-fold serial dilutions of the antimicrobial peptides of interest and conventional antibiotics were prepared in Mueller-Hinton broth (MHB) (Merck, Ireland) in a 96-well round bottom polypropylene plate (ThermoFisher, Ireland). Diluted bacterial suspensions in sterile PBS (Sigma, Ireland) were added to each well resulting in a final cell density of approximately 10^5 colony forming units (CFU)/mL. Microplates were incubated statically for 18 h at 37°C. In each assay, inoculated medium without antimicrobials and uninoculated medium served as growth and sterility controls, respectively. Conventional antibiotics, gentamicin (Merck, Ireland) and mupirocin (SLS, UK), were tested as comparator antimicrobials. The MIC value was defined as the lowest antimicrobial concentration showing no visible growth relative to positive (no antimicrobial agent) and negative controls (BHI alone). Experiments were conducted in triplicate, and independent replicates were performed three times to yield n = 3.

[3] = tested on: pro-inflammatory cytokines; details: cited from earlier work

CC(C)C[C@@H](NC(=O)[C@H](N)CCCNC(=N)N)C(=O)N[C@H](Cc1c[nH]c2ccccc12)C(=O)N[C@@H](C(=O)N[C@H](CC(C)C)C(=O)N[C@H](Cc1c[nH]c2ccccc12)C(=O)N[C@H](CCCNC(=N)N)C(=O)N[C@H](CCCNC(=N)N)C(N)=O)C(C)C [D-Bac8c^2,5 Leu] (H-[dR][dL][dW][dV][dL][dW][dR][dR]-NH2; N-terminus assumed)
IC50 (50% cell viability), MTT (THP-1): 331.7 µg/mL (≈ 280 µM) | Log change vs. untreated control ([1]; 24 h biofilm PAO1 + SH1000, 64 μg/mL, left column of pair under S. aureus + P. aeruginosa): −0.6 Log | Log change vs. untreated control ([1]; 24 h biofilm PAO1 + SH1000, 64 μg/mL, right column of pair under S. aureus + P. aeruginosa): −0.64 Log | Log change vs. untreated control ([1]; 24 h biofilm PAO1 + SH1000, 128 μg/mL, left column of pair): −1.65* Log | Log change vs. untreated control ([1]; 24 h biofilm PAO1 + SH1000, 128 μg/mL, right column of pair): −1.61* Log | Log change vs. untreated control ([1]; 24 h biofilm PAO1 + SH1000, 256 μg/mL): −3.78*** Log | Log change vs. untreated control [2]: −2.44*** Log | MIC (PAO1): 16 µg/mL (≈ 13.5 µM) | release of pro-inflammatory cytokines in human blood [3]: did not induce
